Where no end group is shown, it is not given here.
Experiments:
Experiment in all cases: Histone peptide microarray
Assay type in all cases: binding, human
AIRE (PP) = conditions: AIRE (PP), GST-tagged; arrays performed twice, n of 4
Excerpt: (§1) To more comprehensively define the histone interactions of the 31 PHD readers identified from the domain microarray analyses, we probed each on an alternate microarray platform containing a library of 293 synthetic histone peptides with single or combinatorial PTMs (Additional file 2: Figure S4 and Additional file 3: Table S2).
(§2) The 31 GST-tagged PHD readers identified in the PHD finger domain array were expressed and purified as previously. Histone peptide arrays and peptide pulldown assays were conducted as recently described (specifically, the optimized protocol from Petell et al. for the former).
(§3) Supplementary file 13072_2020_328_MOESM3_ESM.xlsx: Additional file 3: Table S2. […] Excel Tab Peptide List is a compiled list of the entire 293 histone peptide library with amino acid sequence ranges. […] Each number corresponds to the peptide number designated in Peptide List. Excel Tab Average Signals is a compiled set of binding data: chromatin reader at 0.5 μM vs. entire 293 peptide library. Data is presented as the average and standard deviation of 4 replicates. The average signals are colored to indicate signal intensity with green being strong and white being weak/low. […] Key: red= stronger relative binding; blue = weaker relative binding. Excel Tab Array info summary is a table summarizing the domains, sequence coverage, array signal range, and noise for each of the GST-tagged readers assayed on the peptide microarrays.

BAZ2B = conditions: BAZ2B, GST-tagged; arrays performed twice, n of 4
Excerpt: as §1, §2, §3

BPTF (PB) = conditions: BPTF (PB), GST-tagged; arrays performed twice, n of 4
Excerpt: as §1, §2, §3

CHD4 (PPCC) = conditions: CHD4 (PPCC), GST-tagged; arrays performed twice, n of 4
Excerpt: as §1, §2, §3

CHD5 (PCC) = conditions: CHD5 (PCC), GST-tagged; arrays performed twice, n of 4
Excerpt: as §1, §2, §3

CHD5 (PPCC) = conditions: CHD5 (PPCC), GST-tagged; arrays performed twice, n of 4
Excerpt: as §1, §2, §3

DIDO1 = conditions: DIDO1, GST-tagged; arrays performed twice, n of 4
Excerpt: as §1, §2, §3

DPF2 (PPC2W2) = conditions: DPF2 (PPC2W2), GST-tagged; arrays performed twice, n of 4
Excerpt: as §1, §2, §3

ING1 = conditions: ING1, GST-tagged; arrays performed twice, n of 4
Excerpt: as §1, §2, §3

ING2 = conditions: ING2, GST-tagged; arrays performed twice, n of 4
Excerpt: as §1, §2, §3

ING3 = conditions: ING3, GST-tagged; arrays performed twice, n of 4
Excerpt: as §1, §2, §3

ING4 = conditions: ING4, GST-tagged; arrays performed twice, n of 4
Excerpt: as §1, §2, §3

ING5 = conditions: ING5, GST-tagged; arrays performed twice, n of 4
Excerpt: as §1, §2, §3

KDM4C (TTP) = conditions: KDM4C (TTP), GST-tagged; arrays performed twice, n of 4
Excerpt: as §1, §2, §3

KDM5A (1) = conditions: KDM5A (1), GST-tagged; arrays performed twice, n of 4
Excerpt: as §1, §2, §3

KDM5A (3) = conditions: KDM5A (3), GST-tagged; arrays performed twice, n of 4
Excerpt: as §1, §2, §3

KDM5B (1) = conditions: KDM5B (1), GST-tagged; arrays performed twice, n of 4
Excerpt: as §1, §2, §3

KDM5B (3) = conditions: KDM5B (3), GST-tagged; arrays performed twice, n of 4
Excerpt: as §1, §2, §3

KDM7A = conditions: KDM7A, GST-tagged; arrays performed twice, n of 4
Excerpt: as §1, §2, §3

MLL5 = conditions: MLL5, GST-tagged; arrays performed twice, n of 4
Excerpt: as §1, §2, §3

MORC3 (CW) = conditions: MORC3 (CW), GST-tagged; arrays performed twice, n of 4
Excerpt: as §1, §2, §3

PHF13 = conditions: PHF13, GST-tagged; arrays performed twice, n of 4
Excerpt: as §1, §2, §3

PHF21A = conditions: PHF21A, GST-tagged; arrays performed twice, n of 4
Excerpt: as §1, §2, §3

PHF23 = conditions: PHF23, GST-tagged; arrays performed twice, n of 4
Excerpt: as §1, §2, §3

PHF2 = conditions: PHF2, GST-tagged; arrays performed twice, n of 4
Excerpt: as §1, §2, §3

PHF8 = conditions: PHF8, GST-tagged; arrays performed twice, n of 4
Excerpt: as §1, §2, §3

PHRF1 (RP) = conditions: PHRF1 (RP), GST-tagged; arrays performed twice, n of 4
Excerpt: as §1, §2, §3

RAG2 = conditions: RAG2, GST-tagged; arrays performed twice, n of 4
Excerpt: as §1, §2, §3

SP140L = conditions: SP140L, GST-tagged; arrays performed twice, n of 4
Excerpt: as §1, §2, §3

TAF3 = conditions: TAF3, GST-tagged; arrays performed twice, n of 4
Excerpt: as §1, §2, §3

TRIM66 (PB) = conditions: TRIM66 (PB), GST-tagged; arrays performed twice, n of 4
Excerpt: as §1, §2, §3

Array Heatmap value (peptide array binding signal) (AIRE (PP)) | Array Heatmap value (peptide array binding signal) (BAZ2B) | Array Heatmap value (peptide array binding signal) (BPTF (PB)) | Array Heatmap value (peptide array binding signal) (CHD4 (PPCC)) | Array Heatmap value (peptide array binding signal) (CHD5 (PCC)) | Array Heatmap value (peptide array binding signal) (CHD5 (PPCC)) | Array Heatmap value (peptide array binding signal) (DIDO1) | Array Heatmap value (peptide array binding signal) (DPF2 (PPC2W2)) | Array Heatmap value (peptide array binding signal) (ING1) | Array Heatmap value (peptide array binding signal) (ING2) | Array Heatmap value (peptide array binding signal) (ING3) | Array Heatmap value (peptide array binding signal) (ING4) | Array Heatmap value (peptide array binding signal) (ING5) | Array Heatmap value (peptide array binding signal) (KDM4C (TTP)) | Array Heatmap value (peptide array binding signal) (KDM5A (1)) | Array Heatmap value (peptide array binding signal) (KDM5A (3)) | Array Heatmap value (peptide array binding signal) (KDM5B (1)) | Array Heatmap value (peptide array binding signal) (KDM5B (3)) | Array Heatmap value (peptide array binding signal) (KDM7A) | Array Heatmap value (peptide array binding signal) (MLL5) | Substance | further results
0.3861 | 0.3915 | 0.3189 | 0.5396 | 0.7354 | 0.4838 | 0.6117 | 0.6034 | 0.4946 | 0.5892 | 0.4524 | 0.3991 | 0.2996 | 0.4403 | 0.3887 | 0.4284 | 0.624 | 0.4159 | 0.3467 | 0.5006 | H2A.Z (1-19) (N-ac): H2AZ 1-19 (Ac-AGGKAGKDSGKAKTKAVSR; UniProt P0C0S5 2-20, looked up, fragment) | Array Heatmap value (peptide array binding signal) (MORC3 (CW)): 0.339; Array Heatmap value (peptide array binding signal) (PHF13): 0.5558; Array Heatmap value (peptide array binding signal) (PHF21A): 0.4295; Array Heatmap value (peptide array binding signal) (PHF23): 0.4986; Array Heatmap value (peptide array binding signal) (PHF2): 0.4703; Array Heatmap value (peptide array binding signal) (PHF8): 0.3344; Array Heatmap value (peptide array binding signal) (PHRF1 (RP)): 0.3855; Array Heatmap value (peptide array binding signal) (RAG2): 0.2204; Array Heatmap value (peptide array binding signal) (SP140L): 0.3411; Array Heatmap value (peptide array binding signal) (TAF3): 0.2353; Array Heatmap value (peptide array binding signal) (TRIM66 (PB)): 0.556
0.4876 | 0.5259 | 0.4073 | 0.6658 | 0.7976 | 0.6481 | 0.7863 | 0.7315 | 0.6166 | 0.6115 | 0.5693 | 0.5367 | 0.4264 | 0.563 | 0.5328 | 0.4992 | 0.6378 | 0.4993 | 0.3952 | 0.5607 | H2A.Z (1-19): H2AZ 1-19 (AGGKAGKDSGKAKTKAVSR; UniProt P0C0S5 2-20, looked up, fragment) | Array Heatmap value (peptide array binding signal) (MORC3 (CW)): 0.3781; Array Heatmap value (peptide array binding signal) (PHF13): 0.7054; Array Heatmap value (peptide array binding signal) (PHF21A): 0.4938; Array Heatmap value (peptide array binding signal) (PHF23): 0.5743; Array Heatmap value (peptide array binding signal) (PHF2): 0.6568; Array Heatmap value (peptide array binding signal) (PHF8): 0.402; Array Heatmap value (peptide array binding signal) (PHRF1 (RP)): 0.5374; Array Heatmap value (peptide array binding signal) (RAG2): 0.2847; Array Heatmap value (peptide array binding signal) (SP140L): 0.3948; Array Heatmap value (peptide array binding signal) (TAF3): 0.3163; Array Heatmap value (peptide array binding signal) (TRIM66 (PB)): 0.6377
0.5817 | 0.5346 | 0.4048 | 0.6197 | 0.8638 | 0.6452 | 0.7683 | 0.7519 | 0.5984 | 0.6161 | 0.5369 | 0.5392 | 0.4262 | 0.565 | 0.5365 | 0.4842 | 0.6584 | 0.5225 | 0.3929 | 0.5838 | H2A.Z K4ac + K8ac + K12ac (1-19) (N-ac): H2AZ 1-19 (Ac-AGGKAGKDSGKAKTKAVSR; not fully specified (residue 4); UniProt P0C0S5 2-20, looked up, fragment) | Array Heatmap value (peptide array binding signal) (MORC3 (CW)): 0.4285; Array Heatmap value (peptide array binding signal) (PHF13): 0.6948; Array Heatmap value (peptide array binding signal) (PHF21A): 0.5429; Array Heatmap value (peptide array binding signal) (PHF23): 0.5933; Array Heatmap value (peptide array binding signal) (PHF2): 0.5309; Array Heatmap value (peptide array binding signal) (PHF8): 0.4227; Array Heatmap value (peptide array binding signal) (PHRF1 (RP)): 0.5134; Array Heatmap value (peptide array binding signal) (RAG2): 0.271; Array Heatmap value (peptide array binding signal) (SP140L): 0.395; Array Heatmap value (peptide array binding signal) (TAF3): 0.3233; Array Heatmap value (peptide array binding signal) (TRIM66 (PB)): 0.6947

Source: PMC6979384, “Characterization of the plant homeodomain (PHD) reader family for their histone tail interactions” (Epigenetics & Chromatin, 2020)
